Data set [1] has as its target Sodium-dependent serotonin transporter (Homo sapiens, UniProt P31645).
Description: Inhibition of serotonin reuptake in SERT (unknown origin)
Data set [2] deals with T1, 5-hydroxytryptamine receptor 1A (Homo sapiens, UniProt P08908).
T1 sequence (P08908 whole entry): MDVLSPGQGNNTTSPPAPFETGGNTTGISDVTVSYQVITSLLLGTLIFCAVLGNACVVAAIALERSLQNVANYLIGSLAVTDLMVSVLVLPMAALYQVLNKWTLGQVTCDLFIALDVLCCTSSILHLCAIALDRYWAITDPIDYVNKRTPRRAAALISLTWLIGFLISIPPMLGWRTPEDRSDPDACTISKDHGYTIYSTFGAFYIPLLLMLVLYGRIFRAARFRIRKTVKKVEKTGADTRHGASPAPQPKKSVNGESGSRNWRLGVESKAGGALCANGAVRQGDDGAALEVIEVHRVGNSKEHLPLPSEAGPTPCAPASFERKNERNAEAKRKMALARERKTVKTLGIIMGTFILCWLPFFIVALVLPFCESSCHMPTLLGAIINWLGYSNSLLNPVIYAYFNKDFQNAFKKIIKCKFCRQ
The data set is described as follows: Displacement of [3H]8-OH-DPAT from recombinant human 5-HT1A receptor expressed in HEK293 cell membranes after 60 mins by TopCount scintillation counting method.

The target in data set [3] is T2, 5-hydroxytryptamine receptor 7 (Homo sapiens, UniProt P34969). The data set is described as follows: Displacement of [3H]LSD from recombinant human 5-HT7 receptor expressed in CHO cell membranes after 120 mins by TopCount scintillation counting method.
T2 sequence (P34969 whole entry): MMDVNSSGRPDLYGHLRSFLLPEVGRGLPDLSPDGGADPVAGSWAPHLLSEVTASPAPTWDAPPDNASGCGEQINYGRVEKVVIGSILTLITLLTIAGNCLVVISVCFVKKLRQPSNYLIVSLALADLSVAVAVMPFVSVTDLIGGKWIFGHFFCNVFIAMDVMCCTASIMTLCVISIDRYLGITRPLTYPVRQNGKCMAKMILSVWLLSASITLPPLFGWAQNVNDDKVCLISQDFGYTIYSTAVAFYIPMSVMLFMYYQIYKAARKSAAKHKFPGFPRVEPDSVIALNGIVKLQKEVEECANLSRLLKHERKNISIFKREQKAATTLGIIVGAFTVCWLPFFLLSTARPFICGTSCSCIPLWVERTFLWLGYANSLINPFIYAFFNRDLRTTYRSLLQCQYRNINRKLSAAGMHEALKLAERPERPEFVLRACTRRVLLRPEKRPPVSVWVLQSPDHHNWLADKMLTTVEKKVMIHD
The nature of data set [4]: Clearance in rat liver microsomes at 1 uM in presence of NADPH by LC-MS/MS analysis. The conditions noted are these: read-out: CLH. The class given is ADME, microsome.
The target of data set [5] is T3, 5-hydroxytryptamine receptor 1A (Homo sapiens) (UniProt P08908).
T3 sequence (whole entry): T1 sequence (P08908 whole entry)
The data set can be described thus: Displacement of [3H]8-OH-DPAT from recombinant human 5-HT1A receptor expressed in HEK293 cell membranes at 10 uM after 60 mins by TopCount scintillation counting method relative to control.

In data set [6] the target is T2, 5-hydroxytryptamine receptor 7. The data set is described as follows: Displacement of [3H]LSD from recombinant human 5-HT7 receptor expressed in CHO cell membranes at 10 uM after 120 mins by TopCount scintillation counting method relative to control.
Data set [7] has as its target Sodium-dependent serotonin transporter (Rattus norvegicus, UniProt P31652). The data set is described as follows: Inhibition of [3H]serotonin reuptake in rat brain synaptosomes SERT after 15 mins by TopCount scintillation counting method. The format is subcellular.
A short description of data set [8]: in vitro. The conditions noted are these: rat, liver microsomes.
Description: Half life in rat liver microsomes at 1 uM in presence of NADPH by LC-MS/MS analysis
The target in data set [9] is Sodium-dependent serotonin transporter (Rattus norvegicus) (UniProt P31652). The data set is described as follows: Inhibition of [3H]serotonin reuptake in rat brain synaptosomes SERT at 10 uM after 15 mins by TopCount scintillation counting method relative to control. The format is subcellular.
Chain of Sodium-dependent serotonin transporter (Rattus norvegicus) (P31652 whole entry): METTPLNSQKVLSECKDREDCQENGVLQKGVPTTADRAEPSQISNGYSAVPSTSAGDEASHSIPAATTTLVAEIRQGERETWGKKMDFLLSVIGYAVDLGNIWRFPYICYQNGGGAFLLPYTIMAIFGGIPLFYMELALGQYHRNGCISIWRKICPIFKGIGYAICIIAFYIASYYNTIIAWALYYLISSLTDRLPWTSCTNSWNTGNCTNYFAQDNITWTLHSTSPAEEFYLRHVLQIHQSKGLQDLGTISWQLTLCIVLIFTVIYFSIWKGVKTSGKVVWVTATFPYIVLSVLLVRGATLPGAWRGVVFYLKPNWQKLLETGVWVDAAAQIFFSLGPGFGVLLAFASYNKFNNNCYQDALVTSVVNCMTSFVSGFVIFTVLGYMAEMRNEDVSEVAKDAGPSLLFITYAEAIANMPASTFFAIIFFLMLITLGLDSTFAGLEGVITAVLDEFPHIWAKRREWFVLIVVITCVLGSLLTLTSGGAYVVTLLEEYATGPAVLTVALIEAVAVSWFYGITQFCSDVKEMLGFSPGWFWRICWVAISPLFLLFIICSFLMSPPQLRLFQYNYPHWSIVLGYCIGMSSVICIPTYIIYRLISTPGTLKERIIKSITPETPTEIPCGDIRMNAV
In data set [10] the test system is Mus musculus. The data set can be described thus: Antidepressant-like activity in mouse assessed as reduction in immobility time at 40 mg/kg/day, po administered once daily for 7 days measured for 5 mins at 1 hr post last dose by tail suspension test relative to control. The format is functional. Details: scale not given: the % may be the effect or the level left.

Data set [11] relates to Mus musculus. The data set is described as follows: Antidepressant-like activity in mouse assessed as reduction in immobility time at 40 mg/kg/day, po once daily for 7 days measured for last 4 mins of 6 mins test at 1 hr post last dose by forced swim test relative to control. More on the design: scale not given: the % may be the effect or the level left. The class given is functional.

For data set [12], the system named is Mus musculus. The data set is described as follows: Antidepressant-like activity in mouse assessed as reduction in immobility time at 10 mg/kg/day, po once daily for 7 days measured for last 4 mins of 6 mins test at 1 hr post last dose by forced swim test relative to control. The class given is functional. More on the design: scale not given: the % may be the effect or the level left.

Data set [13] deals with Mus musculus. The data set is described as follows: Antidepressant-like activity in mouse assessed as reduction in immobility time at 20 mg/kg/day, po once daily for 7 days measured for last 4 mins of 6 mins test at 1 hr post last dose by forced swim test relative to control. The class given is functional. Details: scale not given: the % may be the effect or the level left.

Data set [14] deals with Mus musculus. The data set is described as follows: Antidepressant-like activity in po dosed mouse assessed as reduction in immobility time administered once daily for 7 days measured for last 4 mins of 6 mins test at 1 hr post last dose by forced swim test. The class given is functional, organism-based.

Where only a bound is given, the exact number is not on record here.

These results are taken from ChEMBL document CHEMBL4251632, “Synthesis and antidepressant-like activity of novel aralkyl piperazine derivatives targeting SSRI/5-HT1A/5-HT7” (Eur J Med Chem, 2018).

Chain of Sodium-dependent serotonin transporter (Rattus norvegicus, UniProt P31652) (P31652 whole entry): as above
Chain of Sodium-dependent serotonin transporter (Homo sapiens, UniProt P31645) (P31645 whole entry): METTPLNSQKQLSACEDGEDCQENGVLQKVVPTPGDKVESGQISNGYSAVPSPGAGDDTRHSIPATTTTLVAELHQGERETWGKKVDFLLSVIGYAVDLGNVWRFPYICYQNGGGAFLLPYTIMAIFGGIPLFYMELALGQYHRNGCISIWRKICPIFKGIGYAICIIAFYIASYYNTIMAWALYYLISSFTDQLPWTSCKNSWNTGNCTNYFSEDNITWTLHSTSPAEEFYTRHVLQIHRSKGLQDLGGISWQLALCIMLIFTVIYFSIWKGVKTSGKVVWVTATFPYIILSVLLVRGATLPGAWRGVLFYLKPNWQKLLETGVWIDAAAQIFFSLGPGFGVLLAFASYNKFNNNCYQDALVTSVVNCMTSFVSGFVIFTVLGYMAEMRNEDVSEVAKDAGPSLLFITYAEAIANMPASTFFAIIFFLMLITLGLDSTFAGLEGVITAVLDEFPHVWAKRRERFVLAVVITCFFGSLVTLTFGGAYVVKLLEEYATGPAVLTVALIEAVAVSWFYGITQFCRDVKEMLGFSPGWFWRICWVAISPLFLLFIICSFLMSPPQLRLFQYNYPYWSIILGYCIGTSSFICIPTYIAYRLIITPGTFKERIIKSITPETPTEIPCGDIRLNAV

The compound `COc1ccccc1N1CCN(CCCN2CCOc3ccccc32)CC1` gave a Ki in data set [1] of 195 nM.
Take `Fc1cccc(-c2ccccc2N2CCN(CCc3c[nH]c4ccc(F)cc34)CC2)c1`: the Ki is 5.6 nM in [2] and 0.79 nM in [3]. Also, the microsomal CLint at 1 µM in [4] worked out at 155 µL/min/mg. Besides, the inhibition in data set [5] was over 90%; in data set [6], 0.79%; in [9], over 90%. Also, the IC50 in data set [7] turned out to be 150 nM. In data set [8], this compound came in with a half-life at 1 µM of 9 min.
Consider `COc1ccc(C(CN(C)C)C2(O)CCCCC2)cc1` (stereo not given) [VENLAFAXINE], for which the Activity in data set [10] came out at 35%.
Consider `Cc1ccc(-c2ccccc2N2CCN(CCc3c[nH]c4ccc(F)cc34)CC2)cc1`, for which the results for the inhibition in data set [5], in [6] and in [9] were 101%, 99.5% and over 90%, respectively. This compound also came in with an IC50 in [7] of 1700 nM.
`Fc1ccc2[nH]cc(CCN3CCN(c4ccccc4-c4ccccc4F)CC3)c2c1`: the Ki in data set [2] was found to be 25 nM; in data set [3], 2.3 nM. Besides, the microsomal CLint at 1 µM in [4] stood at 343 µL/min/mg. In addition, the inhibition in data set [5], in data set [6] and in data set [9] was over 90% throughout. In addition, the IC50 in [7] turned out to be 96 nM. Besides, the half-life at 1 µM in data set [8] was found to be 4 min.
Regarding `Fc1ccc2[nH]cc(CCCN3CCN(c4ccccc4-c4ccccc4)CC3)c2c1`, the Ki was 13 nM in data set [2] and 1.1 nM in data set [3]. Besides, the inhibition in data set [5], in [6] and in data set [9] was over 90% each time. The same compound yielded an IC50 in data set [7] of 7.6 nM.
On to `N#Cc1ccc(-c2ccccc2N2CCN(CCc3c[nH]c4ccc(F)cc34)CC2)cc1`, for which the figures for the inhibition in data set [5], in [6] and in [9] were 99.5%, 97.3% and 84.2%, respectively.
As to `c1ccc(-c2ccccc2N2CCN(CCc3cc4ccccc4o3)CC2)cc1`, the inhibition in [5] is 97.7%; in [6], 96.4%; in [9], over 90%. For the same compound, 2900 nM corresponded to half-maximal inhibition in data set [7] (IC50).
Regarding `N#Cc1ccc2[nH]cc(CCN3CCN(c4ccccc4-c4ccccc4)CC3)c2c1`, the values for the inhibition in [5], in data set [6] and in data set [9] were 97.6%, 93.7% and over 90%, respectively. The same compound came in with an IC50 in data set [7] of 190 nM.
`COc1ccc(-c2ccccc2N2CCN(CCc3c[nH]c4ccc(F)cc34)CC2)cc1`: the results for the inhibition in data set [5], in [6] and in data set [9] were 99.2%, 94.7% and 82.8%, respectively.
For the compound `Fc1cccc(-c2c(F)cccc2N2CCN(CCCc3c[nH]c4ccc(F)cc34)CC2)c1`, the figures for the Ki in data set [2] and in [3] were 18 nM and 0.55 nM, respectively. Also, the microsomal CLint at 1 µM in [4] came out at 51.5 µL/min/mg. For the same compound, the inhibition in data set [5], in data set [6] and in [9] was over 90% in each case. The IC50 in data set [7] is 10 nM. For the same compound, the half-life at 1 µM in data set [8] was determined as 26.9 min.
Regarding `Fc1ccc(-c2ccccc2N2CCN(CCc3c[nH]c4ccc(F)cc34)CC2)cc1`, the microsomal CLint at 1 µM in [4] was found to be 144 µL/min/mg. In addition, the inhibition in data set [5] was 101%; in data set [6], 94.9%; in data set [9], over 90%. For the same compound, the IC50 in [7] worked out at 590 nM. Moreover, the half-life at 1 µM in [8] is 9.6 min.
As for `Fc1cccc(-c2ccccc2N2CCN(CCCc3c[nH]c4ccc(F)cc34)CC2)c1`, the Ki in [2] was 8.1 nM; in data set [3], 1.1 nM. In data set [4], the microsomal CLint at 1 µM is 50 µL/min/mg. The inhibition in [5], in data set [6] and in data set [9] was over 90% in each case. In data set [7], the IC50 is 42 nM. The half-life at 1 µM in data set [8] was found to be 27.7 min.
Turning to `Cc1ccc(Sc2ccccc2N2CCNCC2)c(C)c1` [VORTIOXETINE], the Activity in data set [11] was 48 - 52%.
In the case of `Cc1cccc(-c2ccccc2N2CCN(CCc3c[nH]c4ccc(F)cc34)CC2)c1`, the inhibition was 98.1% in [5], 97.3% in [6] and over 90% in data set [9]. For the same compound, inhibition in data set [7] was half-maximal at 160 nM (IC50).
As to `Fc1cc2c(c(OCCNCCCc3c[nH]c4ccc(F)cc34)c1)OCCC2`, the Ki in data set [1] came to 0.47 nM.
Consider `c1ccc(-c2ccccc2N2CCN(CCc3coc4ccccc34)CC2)cc1`, for which the inhibition in data set [5] was 99.5%; in data set [6] it was 102%; in [9] it was over 90%. This compound returned an IC50 in [7] of 210 nM.
Consider `COc1ccccc1N1CCN(CCc2coc3ccccc23)CC1`, for which the figures for the inhibition in data set [5], in data set [6] and in data set [9] were 98.5%, 85.6% and 110%, respectively.
Take `c1ccc(-c2cccc(N3CCN(CCc4coc5ccccc45)CC3)c2)cc1`: the inhibition in data set [5] is 97.5%; in data set [6] it was 71.9%; in data set [9] it was 99.4%.
Consider `CSc1ccccc1N1CCN(CCc2coc3ccccc23)CC1`, for which the inhibition in data set [5] worked out at 99.7%; in [6], 86.8%; in data set [9] it was 112%.
With `Fc1cccc(-c2ccc(F)cc2N2CCN(CCCc3c[nH]c4ccc(F)cc34)CC2)c1`, the Ki in data set [2] amounted to 15 nM; in data set [3], 2.6 nM. Further, in data set [4], the microsomal CLint at 1 µM was found to be 48.1 µL/min/mg. The inhibition in data set [5], in data set [6] and in data set [9] was over 90% each time. In data set [7], this compound gave an IC50 of 9.4 nM. Further, the half-life at 1 µM in data set [8] came out at 28.8 min.
With `Fc1cccc(-c2cc(F)ccc2N2CCN(CCCCc3c[nH]c4ccc(F)cc34)CC2)c1`, the inhibition in data set [5] was 96%; in [6] it was 97.5%; in [9] it was over 90%. Further, the IC50 in data set [7] came to 120 nM.
As to `Fc1ccc2[nH]cc(CCN3CCN(c4ccccc4-c4ccccc4)CC3)c2c1`, the Ki in data set [2] was 0.53 nM; in data set [3], 0.26 nM. In addition, the microsomal CLint at 1 µM in data set [4] is 226 µL/min/mg. For the same compound, the inhibition in data set [5], in data set [6] and in data set [9] was over 90% in each case. Moreover, the IC50 in data set [7] worked out at 110 nM. Also, in [8], the half-life at 1 µM was 6.1 min.
With `Fc1cccc(-c2cc(F)ccc2N2CCN(CCCc3c[nH]c4ccc(F)cc34)CC2)c1`, the Activity in [12] was 18%; in [11], 37%; in data set [13], 21%; in [14] it was “Dose-dependent effect”. The inhibition constant Ki was determined as 62 nM in data set [2] and 12 nM in [3]. Also, the microsomal CLint at 1 µM in data set [4] worked out at 24.4 µL/min/mg. For the same compound, the inhibition in data set [5], in data set [6] and in data set [9] was over 90% in each case. Moreover, the IC50 in [7] is 31 nM. The same compound registered a half-life at 1 µM in data set [8] of 56.8 min.
